# Experiments:
# MCF7 xenografts = assay: MCF7 cell-derived xenograft (CDX) in vivo combination study; set-up: species or system BALB/c nude mice; conditions: compound 1-1 10 mg/kg; for Δ TV ratio to vehicle group (A/C, B/C, (AB)/C): day 28, Clarke method; for Δ TV (delta tumor volume): p.o. qd for 28 days, average of four tumors
# Method: […] (0.36 mg) pellets (Innovative Research of America Cat. No.: SE-121, pellet size: 3.0 mm) were implanted 2-3 days before cell inoculation.
# (§1) Compound 1-1 was formulated every day freshly as a solution in 5% DMSO/95% (30% w/v HPβCD in water). This formulation was also used as vehicle control. Everolimus was formulated as a suspension in 1% MC (400 cps), which was prepared every 3 days.
# (§2) Body weights were measured at the same time.
# An approximation of drug interactions was made using the method described by Clarke (Clarke et al. 1997. Breast Cancer Res Treat. 46(2-3):255-78). This was applied to […] and can estimate interactions from limited data. In short, for compound A, B, or the combination AB (with control group C), antagonism is predicted when (AB)/C>(A/C)×(B/C), an additive effect is predicted when (AB)/C=(A/C)×(B/C), and synergistic interaction is predicted to occur when (AB)/C<(A/C)×(B/C). Calculations in Table 10B indicate that the interaction of everolimus and compound 1-1 in the MCF7 CDX model is synergistic.
# 17β-Estradiol (0.36 mg) pellets (Innovative Research of America Cat. No.: SE-121, pellet size: 3.0 mm) were implanted 2-3 days before cell inoculation.
# (§3) Compound 1-1 was formulated every day freshly as a solution in 5% DMSO/95% (30% w/v HPβCD in water). This formulation was also used as vehicle control. Alpelisib was formulated as a solution in 20% captisol+80% water (pH adjusted to 4), which was prepared every week.
# CAL51 xenografts = assay: CAL51 cell-derived xenograft (CDX) in vivo combination study; set-up: species or system SCID Beige mice; conditions: compound 1-1 3 mg/kg; for antitumor effect vs vehicle (tumor volume): day 21, ANOVA with post hoc Tukey's test; for antitumor effect vs vehicle (tumor volume) / Δ TV ratio to vehicle group (A/C, B/C, (AB)/C): p.o. qd; for Δ TV ratio to vehicle group (A/C, B/C, (AB)/C): day 21, Clarke method; for Δ TV (delta tumor volume): p.o. qd for 21 days, average of four tumors
# Method: as §1, §2, §3
# NCI-H1836 cell line = assay: CTG viability, 11x11 concentration matrix, Loewe synergy (SCLC); conditions: inhibitor combined with compound 1-1, 11x11 matrix, 72 hours
# Method: (§4) Cells were cultured in the media recommended by the supplier.
# (§5) On the day before compound addition, cells were seeded in 384-well-plates (white with clear flat bottom) at the densities indicated in Table 6 in 40 μL of growth medium. The next day, compounds were dispensed from 10 mM stocks using a HP D300 dispenser according to the concentration matrices described above. For each cell line, the compound concentration matrices were dispensed twice as side-by-side duplicates on one 384-well-plate. In addition, each plate contained 14 wells with only growth medium and 44 wells with cells treated with DMSO alone to calculate the average background and maximal signals, respectively. The final DMSO concentration was normalized to 0.2% across the plates. Plates were then incubated for 72 hours. CellTiter-Glo® Luminescent Cell Viability Assay (CTG, Promega G7570) reagent was prepared according to the manufacturer's instructions. Plates were equilibrated to room temperature for approximately 30 minutes, 25 μL CTG reagent was added to each well and plates were mixed on an orbital shaker for 10 minutes to allow for cell lysis. After further incubation for 20 minutes at room temperature, the clear bottoms of the plates were pasted with white back seal and luminescence was read on an EnVision plate reader (measurement time 0.1 seconds).
# NCI-H1876 cell line = assay: as above; conditions: inhibitor combined with compound 1-1, 11x11 matrix, 72 hours
# Method: as §4, §5
# NCI-H209 cell line = assay: as above; conditions: inhibitor combined with compound 1-1, 11x11 matrix, 72 hours
# Method: as §4, §5
# NCI-H526 cell line = assay: as above; conditions: inhibitor combined with compound 1-1, 11x11 matrix, 72 hours
# Method: as §4, §5
# NCI-H69 cell line = assay: as above; conditions: inhibitor combined with compound 1-1, 11x11 matrix, 72 hours
# Method: as §4, §5
# DOHH-2 cell line = assay: CTG viability, 11x11 concentration matrix, Loewe synergy (lymphoma); conditions: inhibitor combined with compound 1-1, 11x11 matrix, 72 hours
# Method: as §4, §5
# DB cell line = assay: as above; conditions: inhibitor combined with compound 1-1, 11x11 matrix, 72 hours
# Method: as §4, §5
# WSU-DLCL2 cell line = assay: as above; conditions: inhibitor combined with compound 1-1, 11x11 matrix, 72 hours
# Method: as §4, §5
# RAJI cell line = assay: as above; conditions: inhibitor combined with compound 1-1, 11x11 matrix, 72 hours
# Method: as §4, §5
# SU-DHL-6 cell line = assay: as above; conditions: inhibitor combined with compound 1-1, 11x11 matrix, 72 hours
# Method: as §4, §5
# MM.1S cell line = assay: CTG viability, 11x11 concentration matrix, Loewe synergy (multiple myeloma); conditions: inhibitor combined with compound 1-1, 11x11 matrix, 72 hours
# Method: as §4, §5
# OPM-2 cell line = assay: as above; conditions: inhibitor combined with compound 1-1, 11x11 matrix, 72 hours
# Method: as §4, §5
# U266B1 cell line = assay: as above; conditions: inhibitor combined with compound 1-1, 11x11 matrix, 72 hours
# Method: as §4, §5
# RPMI 8226 cell line = assay: as above; conditions: inhibitor combined with compound 1-1, 11x11 matrix, 72 hours
# Method: as §4, §5
# KMS-34 cell line = assay: as above; conditions: inhibitor combined with compound 1-1, 11x11 matrix, 72 hours
# Method: as §4, §5
# [1] = test system: PDX models LU5188, LU5247, LU5236, LU1508, LU5215, LU5137; assay: Lung cancer patient-derived xenograft (PDX) in vivo combination study; set-up: species or system BALB/c nude or NOD/SCID mice; conditions: six lung cancer PDX models; everolimus 5 mg/kg qd p.o.
# Method: • Models: The study was conducted at Crown Bioscience with the PDX models LU5188 (small cell lung neuroendocrine carcinoma), LU5247 (non-small cell lung adenocarcinoma), LU5236 (small cell lung neuroendocrine carcinoma), LU1508 (small cell lung neuroendocrine carcinoma), LU5215 (small cell lung neuroendocrine carcinoma), and LU5137 (large cell neuroendocrine carcinoma). • Animals: BALB/c nude (LU1508) or NOD/SCID (all other models) female mice, 5-7 weeks old, weighing approximately 22-25 g, were purchased from certified vendors.
# Tumor Inoculation: Fresh tumor tissues was harvest from tumor bearing mice, cut into small pieces (approximately 2-3 mm in diameter) and was kept in RPMI1640 cell culture medium at 4° C.). Lidocaine cream was applied to the PDX fragment inoculation site 1 hour before the operation. In addition, hair was removed from NOD/SCID mice before fragment implantation. Each animal was disinfected at the inoculation site with alcohol swap, PDX tumor fragments were inserted subcutaneously at the upper right dorsal flank with a trocar. The trocar was withdrawn any air bubbles under the skin were extruded.
# Both compounds were administered orally.
# as §2
SMILES,"Mean Loewe synergy score, NCI-H1836 (NCI-H1836 cell line)","Mean Loewe synergy score, NCI-H1876 (NCI-H1876 cell line)","Mean Loewe synergy score, NCI-H209 (NCI-H209 cell line)","Mean Loewe synergy score, NCI-H526 (NCI-H526 cell line)","Mean Loewe synergy score, NCI-H69 (NCI-H69 cell line)","Mean Loewe synergy score, DOHH2 (DOHH-2 cell line)","Mean Loewe synergy score, DB (DB cell line)","Mean Loewe synergy score, WSU-DLCL2 (WSU-DLCL2 cell line)","Mean Loewe synergy score, RAJI (RAJI cell line)","Mean Loewe synergy score, SUDHL6 (SU-DHL-6 cell line)","Mean Loewe synergy score, MM.1S (MM.1S cell line)","Mean Loewe synergy score, OPM-2 (OPM-2 cell line)","Mean Loewe synergy score, U266B1 (U266B1 cell line)","Mean Loewe synergy score, RPMI 8226 (RPMI 8226 cell line)","Mean Loewe synergy score, KMS-34 (KMS-34 cell line)",also measured
"Cc1nc(NC(=O)N2CCC[C@H]2C(N)=O)sc1-c1ccnc(C(C)(C)C(F)(F)F)c1 [Alpelisib, (2S)-1-N-[4-methyl-5-[2-(1,1,1-trifluoro-2-methylpropan-2-yl)pyridin-4-yl]-1,3-thiazol-2-yl]pyrrolidine-1,2-dicarboxamide]",1.69,1.64,1.49,3.7,5.05,1.59,−2.27,−2.69,2.05,−6.28,3.44,−2.51,0.13,0.9,7.85,"anti-tumor effect compared to vehicle (MCF7 xenografts; day 28, ANOVA with post hoc Tukey's test, alpelisib 50 mg/kg, p.o. qd): significant anti-tumor effect; Δ TV ratio to vehicle group (A/C, B/C, (AB)/C) (MCF7 xenografts; alpelisib 50 mg/kg, p.o. qd): 0.15; Δ TV (delta tumor volume) (MCF7 xenografts; day 28, alpelisib 50 mg/kg, combination 50 + 10 mg/kg): 91 mm^3; antitumor effect vs vehicle (tumor volume) (CAL51 xenografts; alpelisib 20 mg/kg): neither alpelisib nor compound 1-1 produced a statistically significant antitumor effect; Δ TV ratio to vehicle group (A/C, B/C, (AB)/C) (CAL51 xenografts; alpelisib 20 mg/kg): 0.76; Δ TV (delta tumor volume) (CAL51 xenografts; day 21, alpelisib 20 mg/kg, combination 20 + 3 mg/kg): 425 mm3"
"CO[C@H]1C[C@@H]2CC[C@@H](C)[C@@](O)(O2)C(=O)C(=O)N2CCCC[C@H]2C(=O)O[C@H]([C@H](C)C[C@@H]2CC[C@@H](OCCO)[C@H](OC)C2)CC(=O)[C@H](C)/C=C(\C)[C@@H](O)[C@@H](OC)C(=O)[C@H](C)C[C@H](C)/C=C/C=C/C=C/1C [Everolimus, (1R,9S,12S,15R,16E,18R,19R,21R,23S,24E,26E,28E,30S,32S,35R)-1,18-dihydroxy-12-[(2R)-1-[(1S,3R,4R)-4-(2-hydroxyethoxy)-3-methoxycyclohexyl]propan-2-yl]-19,30-dimethoxy-15,17,21,23,29,35-hexamethyl-11,36-dioxa-4-azatricyclo[30.3.1.0^4,9]hexatriaconta-16,24,26,28-tetraene-2,3,10,14,20-pentone]",1.58,−0.29,6.14,6.49,9.46,6.48,5.81,8.29,14.66,12.05,6.7,5.3,4.16,20.75,16.19,"antitumor effect vs vehicle (tumor volume) (MCF7 xenografts; day 28, ANOVA with post hoc Tukey's test, everolimus 2 mg/kg, p.o. qd): statistically significant antitumor effects; Δ TV ratio to vehicle group (A/C, B/C, (AB)/C) (MCF7 xenografts; everolimus 2 mg/kg, p.o. qd): 0.26; Δ TV (delta tumor volume) (MCF7 xenografts; day 28, everolimus 2 mg/kg, combination 2 + 10 mg/kg): 164 mm3; antitumor effect vs vehicle (tumor volume) (CAL51 xenografts; everolimus 2 mg/kg): did not significantly impede tumor growth; Δ TV ratio to vehicle group (A/C, B/C, (AB)/C) (CAL51 xenografts; everolimus 2 mg/kg): 0.87; Δ TV (delta tumor volume) (CAL51 xenografts; day 21, everolimus 2 mg/kg, combination 2 + 3 mg/kg): 491 mm3; body weight loss [1]: Body weight loss was caused by everolimus dosing"

# From US20260166045A1, “COMBINATION THERAPY COMPRISING GSPT1-DIRECTED MOLECULAR GLUE DEGRADERS AND PI3K/AKT/mTOR PATHWAY INHIBITORS” (Monte Rosa Therapeutics, Inc., priority 2022, published 2026)
